The term Ki denotes the equilibrium dissociation constant of an inhibitor or competing ligand from its target. In general, Kd refers to the constant that tells how readily two partners part at equilibrium. The EC50 is the concentration needed to bring the measured effect to its halfway point.

This note sets out measurements from patent US6887896B1, “7-[(7-Alkoxy)-chrom-3-en-6-yl]-heptatrienoic acid and 7-[(3-alkoxy)-5,6-dihydronaphthalen-2-yl]-heptatrienoic acid derivatives having serum glucose reducing activity” (Allergan, Inc., priority 2003, dated 2005).

The structures appear in SMILES notation.

One data set concerns the target T1, RXRγ (UniProt P28705).
T1 sequence (P28705 1-463): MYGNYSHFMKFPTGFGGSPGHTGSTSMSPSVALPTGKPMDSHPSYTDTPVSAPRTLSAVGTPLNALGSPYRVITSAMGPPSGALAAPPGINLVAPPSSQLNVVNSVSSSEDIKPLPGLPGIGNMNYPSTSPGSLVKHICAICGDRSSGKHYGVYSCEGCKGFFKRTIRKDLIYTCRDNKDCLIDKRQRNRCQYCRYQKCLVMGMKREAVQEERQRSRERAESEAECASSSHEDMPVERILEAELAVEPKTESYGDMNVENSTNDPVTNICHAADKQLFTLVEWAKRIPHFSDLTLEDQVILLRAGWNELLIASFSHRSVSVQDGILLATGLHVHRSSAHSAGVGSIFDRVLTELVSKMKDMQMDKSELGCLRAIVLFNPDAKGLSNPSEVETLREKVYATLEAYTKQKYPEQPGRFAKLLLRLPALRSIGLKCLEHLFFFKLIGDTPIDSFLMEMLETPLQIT
As to the kind of experiment: ligand binding assay, RXRγ. Particulars: for Kd: Table 9 (Formula F), read-out: RXR γ Kd. An excerpt:
(§1) Specifically, one such assay is a chimeric receptor transactivation assay which tests for agonist-like activity in the R RAPE and RAR7 receptor subtypes, and which is based on work published by Feigner, P. L. and Holm, M (1989) Focus, 112 is described in detail in U.S. Pat. No. 5,455,265. The specification of U.S. Pat. No. 5,455,265 is hereby expressly incorporated by reference. A holoreceptor transactivation assay and a ligand binding assay which measure the antagonist/agonist like activity of the compounds of the invention, or their ability to bind to the several retinoid receptor subtypes, respectively, are described in published PCT Application No. WO WO93/11755 (particularly on pages 30-33 and 37-41) published on Jun. 24, 1993, the specification of which is also incorporated herein by reference. A detailed experimental procedure for holoreceptor transactivations has been described by Heyman et al. Cell 68, 397-406, (1992); Allegretto et al. J. Biol. Chem. 268, 26625-26633, and Mangelsdorf et al. The Retinoids: Biology, Chemistry and Medicine, pp 319-349, Raven Press Ltd., New York, which are expressly incorporated herein by reference. The results obtained in this assay are expressed in EC50 numbers, as they are also in the chimeric receptor transactivation assay. The results of the ligand binding assay are expressed in Ki numbers. (See Cheng et al. Biochemical Pharmacology Vol. 22 pp 3099-3108, expressly incorporated herein by reference.)
(§2) Generally speaking, in the tables disclosing the results of transactivation and binding assays the numbers in parentheses indicate efficacy as a percentage compared to the standard compound, (2E,4E,1′S,2′S)-3-methyl-5-[2′-methyl-2′-(5,5,8,8-tetramethyl-5,6,7,8-tetrahydro-naphthalen-2-yl)cyclopropyl]-penta-2,4-dienoic acid and the other numbers indicate the measured EC50 and K; in nanomolar concentration.

The subject of data set [1] is ob/ob mice. As to the kind of experiment: serum glucose, triglycerides and T4 in diabetic mice, oral gavage in corn oil daily for seven days. The class given is in vivo. Particulars: for Glucose Day 0 / Triglycerides Day 0: day 0 (pre-treatment).
In a further data set the target is T2, RARγ (Homo sapiens, UniProt P13631).
T2 sequence (P13631 185-419 limits assumed): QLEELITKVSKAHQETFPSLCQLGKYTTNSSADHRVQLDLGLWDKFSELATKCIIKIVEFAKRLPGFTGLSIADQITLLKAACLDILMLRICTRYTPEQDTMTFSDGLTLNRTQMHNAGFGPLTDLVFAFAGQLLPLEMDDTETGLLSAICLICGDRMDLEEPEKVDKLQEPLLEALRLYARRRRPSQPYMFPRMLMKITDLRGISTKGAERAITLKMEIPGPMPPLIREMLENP
The data set can be described thus: chimeric receptor transactivation assay, RARγ. The class given is cell-based. Particulars: read-out: RAR Trans. EC50 γ.
Source text: as §1, with “(See Cheng et al. Biochemical Pharmacology Vol. 22 pp 3099-3108, expressly incorporated herein by reference.)” left out
Efficacy in a transactivation assay is expressed as a percentage of the maximum potency attained by the compound compared to a standard which, in this case, is the compound named (2E,4E,1′S,2′S)-3-methyl-5-[2′-methyl-2′-(5,5,8,8-tetramethyl-5,6,7,8-tetrahydro-naphthalen-2-yl)-cyclopropyl]-penta-2,4-dienoic acid. […]
as §2

Data set [2] has as its system ob/ob mice. The data set can be described thus: serum glucose, triglycerides and T4 in ob/ob mice, drug mixed in control diet over 7 days. It is filed as in vivo. Particulars: 30 mg/kg per day in diet; for Glucose Day 0 / Triglycerides Day 0: day 0 (pre-treatment).
Setting [3] is: 80 mg/kg, corn oil vehicle (second Table 9).
Where [4] appears, read: 50 mg/kg, corn oil vehicle (Table 7).

Consider `CCOc1cc2c(cc1\C(C)=C(F)/C=C/C(C)=C/C(=O)O)C(C(C)C)=CCC2(C)C` [Compound A-79, (2E,4E,6E)-6-Fluoro-3-(4,4-dimethylethoxy-1-isopropyl-3,4-dihydronaphthalen-7-yl)-3-methyl-2.4,6-octa-trienoic acid], for which the inhibition constant Ki on RXRγ (read-out: RXR Bind Ki γ) came out at 88 nM.

With `CCOc1c(\C(CC)=C(F)/C=C/C(C)=C/C(=O)O)cc2c(c1Br)C(C)(C)CC=C2C(C)C` [Compound A-170, (2E,4E,6E)-7-(4-Bromo-3-ethoxy-8-isopropyl-5,5-dimethyl-5,6-dihydro-naphthalen-2-yl)-6-fluoro-3-methyl-nona-2,4,6-trienoic acid], at RXRγ, the Kd stood at 29 nM. Besides, in the data set with ob/ob mice [1] (setting [3]), the “Glucose Day 3, 3 h” value stood at 294 mg/dL; the “Glucose Day 6, 3 h” value was determined as 255 mg/dL; the “T4 Day 7” value was found to be 2.7 µg/dL; the “Triglycerides Day 3, 3 h” value came to 195 mg/dL. In the data set with ob/ob mice [1] (setting [3]), the “Glucose Day 0” value is 423 mg/dL and the “Triglycerides Day 0” value was determined as 168 mg/dL.

Regarding `CCOc1cc2c(cc1\C(=C/C=C/C(C)=C/C(=O)O)CC)C(C)=CCC2(C)C` [Compound A-16, 7-(3-Ethoxy-5,5,8-trimethyl-5,6-dihydronaphthalen-2-yl)-3-methyl-nona-2E,4E,6Z-trienoic acid], in the data set on ob/ob mice [1] (setting [4]), the “Glucose Day 3, 3 h” value turned out to be 297 mg/dL; the “Glucose Day 6, 3 h” value was 267 mg/dL; the “T4 Day 7” value worked out at 4.2 µg/dL; the “Triglycerides Day 3, 3 h” value came to 121 mg/dL. Besides, in the data set on ob/ob mice [1] (setting [4]), the “Glucose Day 0” value is 443 mg/dL and the “Triglycerides Day 0” value was 160 mg/dL.

For the compound `CCOc1c(\C(C)=C(F)/C=C/C(C)=C/C(=O)O)cc2c(c1Br)C(C)(C)CC=C2C(C)(C)C` [Compound A-174, (2E,4E,6E)-7-(4-Bromo-8-tert-butyl-3-ethoxy-5,5-dimethyl-5,6-dihydro-naphthalen-2-yl)-6-fluoro-3-methyl-octa-2,4,6-trienoic acid], the Kd at RXRγ amounted to 34 nM.

Turning to `CCOc1c(\C(CC)=C(F)/C=C/C(C)=C/C(=O)O)cc2c(c1Cl)C(C)(C)CC=C2C(C)C` [Compound A-178, (2E,4E,6E)-7-(4-Chloro-3-ethoxy-8-isopropyl-5,5-dimethyl-5,6-dihydronaphthalen-2-yl)-6-fluoro-3-methyl-nona-2,4,6-trienoic acid], on RXRγ, the Kd was determined as 61 nM. Moreover, the EC50 at RARγ was over 10000 nM.

For `CCOc1c(\C(C)=C/C=C/C(C)=C/C(=O)O)cc2c(c1Cl)OC(C)(C)C=C2C(C)C` [Compound 50, 7-(8-Chloro-4-isopropyl-7-ethoxy-2,2-dimethyl-2H-chromen-6-yl)-3-methyl-octa-2E,4E,6Z-trienoic acid], in the data set with ob/ob mice [2], the “Glucose Day 3, 3 h” value was 209 mg/dL; the “Glucose Day 6, 3 h” value is 237 mg/dL; the “T4 Day 7” value is 4.5 µg/dL; the “Triglycerides Day 3, 3 h” value worked out at 90 ± 33 mg/dL. Further, in the data set on ob/ob mice [2], the “Glucose Day 0” value was determined as 288 mg/dL and the “Triglycerides Day 0” value came out at 122 mg/dL.

Take `CC(/C=C/C(F)=C(/C)c1cc2c(c(Br)c1OC(C)C)C(C)(C)CC=C2C(C)C)=C\C(=O)O` [Compound A-172, (2E,4E,6E)-7-(4-Bromo-3-isopropoxy-8-isopropyl-5,5-dimethyl-5,6-dihydro-naphthalen-2-yl)-6-fluoro-3-methyl-octa-2,4,6-trienoic acid]: at RXRγ, the Kd was found to be 221 nM.

On to `CCOc1c(\C(CC)=C(F)/C=C/C(C)=C/C(=O)O)cc2c(c1Br)C(C)(C)CC=C2C(C)CC` (stereo not shown) [Compound A-176, (2E,4E,6E)-7-(4-Bromo-8-sec-butyl-3-ethoxy-5,5-methyl-5,6-dihydro-naphthalen-2-yl)-6-fluoro-3-methyl-nona-2,4,6-trienoic acid], for which the Kd at RXRγ worked out at 122 nM.

Take `CCOc1cc2c(cc1\C(C)=C(F)/C=C/C(C)=C/C(=O)O)C=CCC2(C)C` [Compound A-76, (2E,4E,6E)-7-(3-Ethoxy-5,5-dimethyl-5,6-dihydro-naphthalen-2-yl)-6-fluoro-3-methyl-octa-2,4.6-trienoic acid]: at RARγ, the EC50 was over 10000 nM.

Regarding `CCOc1cc2c(cc1\C(CC)=C(F)/C=C/C(C)=C/C(=O)O)C=CCC2(C)C` [Compound A-77], on RARγ, the EC50 came to 2 nM.

`CCOc1c(\C(C)=C(F)/C=C/C(C)=C/C(=O)O)cc2c(c1Cl)OC(C)(C)C=C2C(C)C` [Compound 172, 7-(8-Chloro-4-isopropyl-7-ethoxy-2,2-dimethyl-2H-chromen-6-yl)-6-fluoro-3-methyl-octa-2E,4E,6E-trienoic acid]: in the data set on ob/ob mice [2], the “Glucose Day 3, 3 h” value is 193 mg/dL; the “Glucose Day 6, 3 h” value amounted to 206 mg/dL; the “T4 Day 7” value stood at 4.5 µg/dL; the “Triglycerides Day 3, 3 h” value was found to be 68 ± 22 mg/dL. In addition, in the data set with ob/ob mice [2], the “Glucose Day 0” value was 292 mg/dL and the “Triglycerides Day 0” value was 107 mg/dL.

With `CCOc1c(\C(=C(F)/C=C/C(C)=C/C(=O)O)C(C)C)cc2c(c1Br)C(C)(C)CC=C2C(C)C` [Compound A-171, (2E,4E,6E)-7-(4-Bromo-3-ethoxy-8-isopropyl-5,5-dimethyl-5,6-dihydro-naphthalen-2-yl)-6-fluoro-3.8-dimethyl-nona-2.4,6-trienoic acid], the Kd at RXRγ turned out to be 112 nM.
